Legend:
Assay type in all cases: functional
Mus musculus [1] = species on record: Mus musculus; assay: animal or person
Description: The ED50 value of compound was measured for 50% inhibition for analgesia in mice by the hotplate method

Mus musculus [2] = assay: Analgesia was determined by writhing test in mice after 30 mg/kg oral administration
Mus musculus [3] = assay: Analgesia was determined by writhing test in mice after 30 mg/kg oral administration; Range is 50-74%.
Mus musculus [4] = assay: The ED50 value of compound was measured for 50% inhibition for analgesia in mice after oral administration by the hotplate method
Mus musculus [5] = assay: Analgesia was determined by writhing test in mice after 100 mg/kg oral administration; Range is 50-74%.
Mus musculus [6] = assay: Analgesia was determined by writhing test in mice after 100 mg/kg oral administration; Range is 75-99%.
Mus musculus [7] = assay: Analgesia was determined by writhing test in mice after 100 mg/kg oral administration; Range is 25-49%.
Mus musculus [8] = assay: Analgesia was determined by writhing test in mice after 10 mg/kg oral administration

CN1CCC2(CCCc3ccccc32)C1.Cl (stereo not given)
ED50 (Mus musculus [1]): 12.1 mg/kg
inhibition in vivo at 30 mg/kg (Mus musculus [2]): 100%

Br.CN1CCC2(CCCc3ccc(O)cc32)C1 (stereo not given)
inhibition in vivo at 30 mg/kg (Mus musculus [3]): 50%
ED50 (Mus musculus [1]): 42.8 mg/kg

Br.Oc1cccc2c1CCCC21CCNC1 (stereo not given)
inhibition in vivo at 30 mg/kg (Mus musculus [3]): 50%
ED50 (Mus musculus [4]): > 50 mg/kg

COc1cccc2c1CCCC21CCNC1 (stereo not given)
inhibition in vivo at 30 mg/kg (Mus musculus [3]): 50%
ED50 (Mus musculus [1]): 48.6 mg/kg

Oc1ccc2c(c1)C1(CCC2)CCNC1 (stereo not given)
inhibition in vivo at 100 mg/kg (Mus musculus [5]): 50%

COc1ccc2c(c1)C1(CCC2)CCN(C)C1 (stereo not given)
inhibition in vivo at 30 mg/kg (Mus musculus [3]): 50%
ED50 (Mus musculus [4]): > 50 mg/kg

Oc1ccc2c(c1)CCCC21CCNC1 (stereo not given)
inhibition in vivo at 100 mg/kg (Mus musculus [5]): 50%

COc1cccc2c1CCCC21CCN(C)C1 (stereo not given)
inhibition in vivo at 100 mg/kg (Mus musculus [6]): 75%

COc1ccc2c(c1)C1(CCC2)CCNC1 (stereo not given)
inhibition in vivo at 100 mg/kg (Mus musculus [7]): 25%

Cl.c1ccc2c(c1)CCCC21CCNC1 (stereo not given)
ED50 (Mus musculus [1]): 13.3 mg/kg
inhibition in vivo at 30 mg/kg (Mus musculus [2]): 100%

COc1ccc2c(c1)CCCC21CCN(C)C1 (stereo not given)
inhibition in vivo at 100 mg/kg (Mus musculus [5]): 50%

Br.CN1CCC2(CCCc3cc(O)ccc32)C1 (stereo not given)
inhibition in vivo at 30 mg/kg (Mus musculus [3]): 50%
ED50 (Mus musculus [1]): > 50 mg/kg

CCCC1(c2cccc(O)c2)CCN(C)C1 (stereo not given) [PROFADOL]
ED50 (Mus musculus [4]): 3.9 mg/kg
inhibition in vivo at 10 mg/kg (Mus musculus [8]): 100%

CN1CC[C@]23c4c5ccc(O)c4O[C@H]2[C@@H](O)C=C[C@H]3[C@H]1C5.Cl [MORPHINE HYDROCHLORIDE]
ED50 (Mus musculus [1]): 1.2 mg/kg
inhibition in vivo at 10 mg/kg (Mus musculus [8]): 100%

COc1ccc2c(c1)CCCC21CCNC1 (stereo not given)
inhibition in vivo at 100 mg/kg (Mus musculus [7]): 25%

CN1CCC2(CCCc3c(O)cccc32)C1 (stereo not given)
inhibition in vivo at 100 mg/kg (Mus musculus [7]): 25%

— ChEMBL document CHEMBL1121615, “Synthesis and analgesic properties of some conformationally restricted analogues of profadol” (1980)
